# Measured values taken from PubChem BioAssay (NCI).
# Several values for one entry are separate records, joined by “and”; a condition that tells them apart may be missing. Equal values may be shown once.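 Values below derive from 48-hour exposures of cells grown in 96-well plates, with endpoints linearly interpolated between the two concentrations bracketing the appropriate inhibition level. Abbreviation: GI50, concentration required for 50% inhibition of growth. TGI marks complete inhibition of growth.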
# How the values were obtained:
# Assay in all cases: NCI-60 cell line screen, 48 h
# [1] = system: UACC-62 melanoma
# [2] = system: NCI-H23 lung
# [3] = system: 786-0 renal
# [4] = system: HT29 colon
# [5] = system: COLO 205 colon
# [6] = system: HS 578T breast
# [7] = system: T-47D breast
# [8] = system: UO-31 renal
# [9] = system: SF-295 CNS
# [10] = system: HCC-2998 colon
Compound,GI50 [1],TGI [1],GI50 [2],TGI [2],GI50 [3],TGI [3],GI50 [4],TGI [4],GI50 [5],TGI [5],GI50 [6],TGI [6],GI50 [7],TGI [7],GI50 [8],TGI [8],GI50 [9],TGI [9],GI50 [10],TGI [10]
Cn1cc(C2=C(c3cccnc3)C(=O)NC2=O)c2ccccc21,> 25 µM,> 25 µM,> 25 µM,> 25 µM,> 25 µM,> 25 µM,> 25 µM,> 25 µM,> 18.3 µM,> 25 µM,8.14 µM,> 25 µM,14.6 µM,> 25 µM,> 25 µM,> 25 µM,8.13 µM,> 25 µM,> 25 µM,> 25 µM
COC(=O)c1ccc(NC(=O)Nc2ccc3oc(=O)c4ccccc4c3c2)cc1,82.2 µM,> 100 µM,71.4 µM,> 100 µM,18 µM,41.9 µM,28 µM,> 100 µM,32.5 µM,> 100 µM,,29.7 µM,> 100 µM,> 100 µM,62.5 µM,> 100 µM,55.9 µM,> 100 µM,27.1 µM,74 µM
Cn1nnnc1N/N=C/c1ccccc1,,> 10 µM,,> 10 µM,,> 10 µM,,> 10 µM,,> 10 µM,,> 10 µM,,> 10 µM,,> 10 µM,,> 10 µM,,> 10 µM
COc1ccc(-c2nn(-c3cccc(NC(=O)c4ccc5c(c4)OCCO5)c3)cc2-c2ccncc2)cc1Cl,1.46 µM,15.9 µM,2.71 µM,21.3 µM,1.78 µM,5.91 µM,1.88 µM,12.1 µM,1.84 µM,4.64 µM,1.61 µM,8.13 µM,2.96 µM,47.7 µM,2.57 µM,17.3 µM,1.56 µM,4.43 µM,5.48 µM,17.9 µM
CC1CCN(CCCCCOc2ccc3oc4cc(Cl)ccc4c(=O)c3c2)CC1,2.24 µM,7.73 µM,7.36 µM,14.6 µM,6.29 µM,12.7 µM,1.72 µM,6.2 µM,6.09 µM,14.1 µM,7.32 µM,17.8 µM,6.86 µM,16.4 µM,5.7 µM,11.8 µM,6.8 µM,13.2 µM,6.25 µM,13.1 µM
CN(C)CCOc1ccc(/C(=C(/CCCl)c2ccccc2)c2ccccc2)cc1,0.891 µM,1.66 µM,1.42 µM,5.52 µM and 31.3 µM,0.906 µM,,0.598 µM,,0.858 µM,,0.895 µM,,0.841 µM,,0.9 µM,13.8 µM and 30.9 µM,1.02 µM,,0.776 µM,
O=P(NC12CC3CC(CC(C3)C1)C2)(N1CC1)N1CC1,,> 72.2 µM,,> 63.8 µM,,> 100 µM,,> 100 µM,,> 100 µM,,> 100 µM,,> 100 µM,,> 100 µM,,> 100 µM,,> 100 µM
CO/N=C(\C)c1cccc(Nc2cc(-c3ccccc3)nc3c(O)cccc23)c1,6.01 µM,29.2 µM,3.92 µM,24 µM,0.307 µM,3.38 µM,21.8 µM,59.7 µM,18.3 µM,46.1 µM,5.31 µM,38.8 µM,4.32 µM,26.7 µM,4.58 µM,60.5 µM,2.17 µM,5.55 µM,2.88 µM,12.6 µM
COc1ccc2c(c1)C(=O)C(=O)c1cc(O)c(OC)c(OC)c1-2,1.76 µM,1.54 µM and 3.16 µM,1.77 µM,1.77 µM and 4.23 µM,1.85 µM,1.72 µM and 3.26 µM,,3.83 µM,1.89 µM,3.54 µM and 3.74 µM,2.79 µM,2.78 µM and 8.57 µM,1.75 µM,2.81 µM and 3.13 µM,,1.7 µM,1.77 µM,1.65 µM and 3.15 µM,,10.5 µM and 14.1 µM
CNC(=O)c1ccc2cc(C3(O)CCn4cncc43)ccc2c1 (centres undefined),> 100 µM,> 100 µM,> 100 µM,> 100 µM,> 100 µM,> 100 µM,> 100 µM,> 100 µM,> 100 µM,> 100 µM,> 100 µM,> 100 µM,> 100 µM,> 100 µM,> 100 µM,> 100 µM,> 100 µM,> 100 µM,> 100 µM,> 100 µM
CC(C)(C)c1[nH]cnc1/C=c1\[nH]c(=O)/c(=C/c2ccccc2)[nH]c1=O,< 0.01 µM,21.2 µM,0.03 µM,35.2 µM,< 0.01 µM,40.7 µM,< 0.01 µM,9.44 µM,0.013 µM,0.101 µM,< 0.01 µM,> 71.8 µM,< 0.0592 µM,30.9 µM,< 0.0144 µM,27.6 µM,< 0.01 µM,20.5 µM,0.0307 µM,33.1 µM
O=C(CF)N(O)c1ccc(/C=C/c2ccccc2)cc1,1.81 µM,10.7 µM,3.39 µM,98.4 µM,1.98 µM,7.14 µM,3.52 µM,> 100 µM,5.83 µM,> 100 µM,24.1 µM,> 91.5 µM,1.06 µM,> 34.1 µM,3.58 µM,26.2 µM,1.74 µM,11.4 µM,1.64 µM,7.69 µM
CN1CCN(c2ccc3nc(-c4c(N)c5c(F)cccc5[nH]c4=O)[nH]c3c2)CC1,1.19 µM and 1.28 µM and 2.13 µM,6.05 µM and > 2.9 µM and 10 µM,1.53 µM and 0.9 µM and 2.05 µM,6.44 µM and > 3.6 µM and 11.1 µM,1.2 µM and 0.695 µM and 0.946 µM,3.93 µM and > 3.84 µM and 3.07 µM,0.909 µM and 0.663 µM and 1.43 µM,2.89 µM and > 5.42 µM and 11.2 µM,0.965 µM and 0.496 µM and 2.26 µM,2.31 µM and > 2.04 µM and 17.2 µM,0.791 µM and 0.286 µM and 0.974 µM,5.77 µM and > 2.37 µM and 9.75 µM,4.04 µM and 12 µM,10.1 µM and > 6.23 µM and 31.9 µM,0.347 µM and 0.224 µM and 0.232 µM,1.91 µM and > 2.8 µM and 1.54 µM,2.41 µM and 1.09 µM and 3.14 µM,8.1 µM and > 6.69 µM and 8.95 µM,1.33 µM and 0.867 µM and 1.36 µM,5.24 µM and > 4.09 µM and 6.58 µM
O=C(c1ccco1)c1nc2cc(F)ccc2[n+]([O-])c1C(F)(F)F,24.8 µM,68.2 µM,19.1 µM,42.7 µM,53.2 µM,> 100 µM,24 µM,79 µM,16 µM,32.7 µM,97.4 µM,> 100 µM,30.6 µM,> 100 µM,28.1 µM,> 100 µM,51.8 µM,> 100 µM,17 µM,32 µM
N#Cc1ccc(N2Cc3ccccc3OC3=C2C(=O)c2c(O)ccc(O)c2C3=O)cc1,0.24 µM,0.667 µM,1.32 µM,4.2 µM,0.145 µM,0.381 µM,0.258 µM,0.875 µM,0.0907 µM,0.268 µM,1.16 µM,7.07 µM,0.175 µM,0.487 µM,0.166 µM,0.357 µM,2.12 µM,6.96 µM,0.762 µM,1.79 µM
